Assay results taken from patent US5856439A, “Farnesyl transferase inhibitors, preparation thereof, and pharmaceutical compositions containing same” (Rhone-Poulenc Rorer S.A., priority 1995, dated 1999).

Biological target: T1, human farnesyl transferase purified from THP1 cell cultures (Homo sapiens, UniProt P49354+P49356)
T1 construct: human farnesyl transferase purified from THP1 cell cultures; endogenous in cells; host or cells: THP1 cell cultures (enzyme purified from them)
Experiment: Farnesyl transferase inhibition: [3H]farnesyl transfer from [3H]FPP to p21 H-ras
Assay type: biochemical
Settings: 20 minutes at 37° C., 9 concentrations, each test repeated 3 times, read-out: Inhibitory activity IC50
Procedure: Farnesyl transferase activity is determined by the quantity of [^3 H]farnesyl transferred from [^3 H]farnesyl pyrophosphate [[^3 H]FPP) to the p21 H-ras protein. The standard reaction mixture is composed, for a final volume of 60 μl, of 50 mM Tris-HCl, 5 mM MgCl2, 5 mM dithiotreitol, 0.2% octyl β-D-glucopyranoside, 200 picomol p21 H-ras, 4.5 picomol [^3 H]FPP (activity 61000 dpm/picomol).
Reaction is initiated by adding approximately 5 ng of human farnesyl transferase purified from THP1 cell cultures. After incubation for 20 minutes at 37° C. in a microtitration plate containing 96 1-cm^3 wells per plate (Titer Plate®, Beckman), the reaction is stopped by adding 0.4 cm^3 of 0.1% SDS in methanol at 0° C. The mixture is then treated with 0.4 cm^3 of 30% trichloroacetic acid® (TCA) in methanol. The plates are left in ice for 1 hour. […] The membranes are dried in a microwave oven, then impregnated with scintillation medium by melting Meltilex® (Pharmacia) under hot air, and lastly counted in cpm in a β-Plate® counter (LKB). […]
The percentage inhibition values are obtained by comparison of the tests with and without inhibitor after deduction of blanks, the IC50 values being measured on the basis of the inhibitions obtained with 9 different concentrations using Enzfitter® or Grafit® software.

| Substance | IC50 [nM] |
| --- | --- |
| Cys-(N-Me)Val-[cis-3-phenyl-DL-prolyl]-Met | 15.5 |
| Cys-(N-Me)Val-[trans-3-phenyl-DL-prolyl]-Met | 920 |
